According to PMC5218480 (PLoS ONE, 2017):

System: MV-4-11 cells
Test: Gene expression microarray analysis (Affymetrix PrimeView) and GSEA
Assay type: cell-based, human
Parameters: RFU PODN (11730768_x_at) / Fold change /veh PODN (11730768_x_at) / RFU LINC00158 (11744669_a_at) / Fold change /veh LINC00158 (11744669_a_at) / RFU DUSP10 (11751237_a_at) / Fold change /veh DUSP10 (11751237_a_at) / RFU ID3 (11757404_x_at) / Fold change /veh ID3 (11757404_x_at) / RFU PLEKHG5 (11737974_s_at) / Fold change /veh PLEKHG5 (11737974_s_at) / RFU LRRC4B (11730491_at) / Fold change /veh LRRC4B (11730491_at) / RFU GIMAP4 (11747438_a_at) / Fold change /veh GIMAP4 (11747438_a_at) / RFU KRT8 (11758183_x_at) / Fold change /veh KRT8 (11758183_x_at) / RFU CNN1 (11734310_a_at) / Fold change /veh CNN1 (11734310_a_at) / RFU VPS37D (11726825_at) / Fold change /veh VPS37D (11726825_at) / RFU C10orf10 (11716522_x_at) / Fold change /veh C10orf10 (11716522_x_at) / RFU KIR2DL2 /// KIR2DL4 /// KIR2DL5A /// KIR2DL5B /// KIR2DS1 /// KIR2DS2 /// KIR2DS3 /// KIR2DS4 /// KIR3DL3 /// KIR3DL3 /// KIR3DS1 (11738374_at) / Fold change /veh KIR2DL2 /// KIR2DL4 /// KIR2DL5A /// KIR2DL5B /// KIR2DS1 /// KIR2DS2 /// KIR2DS3 /// KIR2DS4 /// KIR3DL3 /// KIR3DL3 /// KIR3DS1 (11738374_at) / RFU C1QL1 (11718748_at) / Fold change /veh C1QL1 (11718748_at) / RFU TMPRSS4 (11747572_a_at) / Fold change /veh TMPRSS4 (11747572_a_at) / RFU HAMP (11756126_x_at) / Fold change /veh HAMP (11756126_x_at) / RFU RNFT2 (11725882_a_at) / Fold change /veh RNFT2 (11725882_a_at) / RFU NR4A2 (11747474_a_at) / Fold change /veh NR4A2 (11747474_a_at) / RFU ABCC12 (11746883_a_at) / Fold change /veh ABCC12 (11746883_a_at) / RFU TMEM136 (11760407_x_at) / Fold change /veh TMEM136 (11760407_x_at) / RFU CLDN22 /// WWC2 (11732394_at) / Fold change /veh CLDN22 /// WWC2 (11732394_at) / RFU HLA-DPB1 (11760878_x_at) / Fold change /veh HLA-DPB1 (11760878_x_at) / RFU SPINT1 (11716480_a_at) / Fold change /veh SPINT1 (11716480_a_at) / RFU GAP43 (11754022_s_at) / Fold change /veh GAP43 (11754022_s_at) / RFU A4GNT (11735810_at) / Fold change /veh A4GNT (11735810_at) / RFU PRB3 (11715151_x_at) / Fold change /veh PRB3 (11715151_x_at) / RFU TUBB4B (11761932_at) / Fold change /veh TUBB4B (11761932_at) / RFU CAPN14 (11732068_a_at) / Fold change /veh CAPN14 (11732068_a_at) / RFU TMCC2 (11721928_a_at) / Fold change /veh TMCC2 (11721928_a_at) / RFU IRGQ (11745062_a_at) / Fold change /veh IRGQ (11745062_a_at) / RFU FAM174B (11720279_a_at) / Fold change /veh FAM174B (11720279_a_at) / RFU TMPRSS4 (11748680_a_at) / Fold change /veh TMPRSS4 (11748680_a_at) / RFU FAM212B (11763350_a_at) / Fold change /veh FAM212B (11763350_a_at) / RFU PLEKHG5 (11743358_a_at) / Fold change /veh PLEKHG5 (11743358_a_at) / RFU ZSCAN30 (11745921_a_at) / Fold change /veh ZSCAN30 (11745921_a_at) / RFU CMKLR1 (11741424_a_at) / Fold change /veh CMKLR1 (11741424_a_at) / RFU LOC101060620 /// MAPK8IP1 (11723275_at) / Fold change /veh LOC101060620 /// MAPK8IP1 (11723275_at) / RFU SPTSSB (11747773_x_at) / Fold change /veh SPTSSB (11747773_x_at) / RFU PRSS12 (11739890_at) / Fold change /veh PRSS12 (11739890_at) / RFU BIN1 (11741810_x_at) / Fold change /veh BIN1 (11741810_x_at) / RFU WNT11 (11732464_a_at) / Fold change /veh WNT11 (11732464_a_at) / RFU C10orf10 (11716521_a_at) / Fold change /veh C10orf10 (11716521_a_at) / RFU C5orf56 (11738089_at) / Fold change /veh C5orf56 (11738089_at) / RFU CYB561 (11721691_x_at) / Fold change /veh CYB561 (11721691_x_at) / RFU ANKRD19P (11752326_a_at) / Fold change /veh ANKRD19P (11752326_a_at) / RFU OR2T12 /// OR2T33 /// OR2T8 (11738714_s_at) / Fold change /veh OR2T12 /// OR2T33 /// OR2T8 (11738714_s_at) / RFU VCAN (11748164_a_at) / Fold change /veh VCAN (11748164_a_at) / RFU JSRP1 (11732532_at) / Fold change /veh JSRP1 (11732532_at) / RFU KRTAP10-11 (11738290_x_at) / Fold change /veh KRTAP10-11 (11738290_x_at) / RFU MYO3A (11730013_a_at) / Fold change /veh MYO3A (11730013_a_at) / RFU EBF3 (11725865_a_at) / Fold change /veh EBF3 (11725865_a_at) / RFU CAMK2N1 (11719241_x_at) / Fold change /veh CAMK2N1 (11719241_x_at) / RFU C5orf56 (11738088_a_at) / Fold change /veh C5orf56 (11738088_a_at) / RFU OLFML3 (11715873_a_at) / Fold change /veh OLFML3 (11715873_a_at) / RFU LOC100653217 /// NTM (11731650_a_at) / Fold change /veh LOC100653217 /// NTM (11731650_a_at) / RFU MAPK11 (11762145_a_at) / Fold change /veh MAPK11 (11762145_a_at) / RFU FIZ1 (11724087_x_at) / Fold change /veh FIZ1 (11724087_x_at) / RFU OASL (11726364_x_at) / Fold change /veh OASL (11726364_x_at) / RFU SOX15 (11748057_x_at) / Fold change /veh SOX15 (11748057_x_at) / RFU CD79A (11719716_a_at) / Fold change /veh CD79A (11719716_a_at) / RFU HIST1H1D (11736915_at) / Fold change /veh HIST1H1D (11736915_at) / RFU CASKIN2 (11723855_a_at) / Fold change /veh CASKIN2 (11723855_a_at) / RFU LOC730098 (11760151_x_at) / Fold change /veh LOC730098 (11760151_x_at) / RFU OR4N2 (11742367_at) / Fold change /veh OR4N2 (11742367_at) / RFU PRRT2 (11749266_a_at) / Fold change /veh PRRT2 (11749266_a_at) / RFU SNX32 (11753110_a_at) / Fold change /veh SNX32 (11753110_a_at) / RFU CDHR5 (11726645_a_at) / Fold change /veh CDHR5 (11726645_a_at) / RFU RCAN1 (11760418_a_at) / Fold change /veh RCAN1 (11760418_a_at) / RFU FAM167A (11723789_a_at) / Fold change /veh FAM167A (11723789_a_at) / RFU FAM26E (11764081_at) / Fold change /veh FAM26E (11764081_at) / RFU ISYNA1 (11749810_s_at) / Fold change /veh ISYNA1 (11749810_s_at) / RFU ACY1 (11761880_at) / Fold change /veh ACY1 (11761880_at) / RFU 11764098_at / Fold change /veh 11764098_at / RFU SAMD14 (11745864_x_at) / Fold change /veh SAMD14 (11745864_x_at) / RFU NPB (11741838_a_at) / Fold change /veh NPB (11741838_a_at) / RFU TMPRSS6 (11731388_a_at) / Fold change /veh TMPRSS6 (11731388_a_at) / RFU KRTAP10-2 (11738614_at) / Fold change /veh KRTAP10-2 (11738614_at) / RFU ARHGAP8 /// PRR5-ARHGAP8 (11727945_x_at) / Fold change /veh ARHGAP8 /// PRR5-ARHGAP8 (11727945_x_at) / RFU KRTAP5-7 /// NADSYN1 (11734609_at) / Fold change /veh KRTAP5-7 /// NADSYN1 (11734609_at) / RFU RASL12 (11751679_a_at) / Fold change /veh RASL12 (11751679_a_at) / RFU CDKN2B (11736163_a_at) / Fold change /veh CDKN2B (11736163_a_at) / RFU PRF1 (11729649_at) / Fold change /veh PRF1 (11729649_at) / RFU, ZNF638 /// ZNF638-IT1 / Fold change vs veh, ZNF638 /// ZNF638-IT1 / RFU, PANK3 / Fold change vs veh, PANK3 / RFU, SH3YL1 / Fold change vs veh, SH3YL1 / RFU, ZEB2 / Fold change vs veh, ZEB2 / RFU, NRIP1 / Fold change vs veh, NRIP1 / RFU, PTTG1IP / Fold change vs veh, PTTG1IP / RFU, CAPN2 / Fold change vs veh, CAPN2 / RFU, MED14 / Fold change vs veh, MED14 / RFU, SNORA58 / Fold change vs veh, SNORA58 / RFU, C1orf63 / Fold change vs veh, C1orf63 / RFU, LRRFIP1 / Fold change vs veh, LRRFIP1 / RFU, NDUFAF7 / Fold change vs veh, NDUFAF7 / RFU, SLC12A2 / Fold change vs veh, SLC12A2 / RFU, IBTK / Fold change vs veh, IBTK / RFU, ESF1 / Fold change vs veh, ESF1 / Fold change vs veh, TMEM50B / RFU, TAOK1 / Fold change vs veh, TAOK1 / RFU, ACBD3 / Fold change vs veh, ACBD3 / RFU, TMA16 / Fold change vs veh, TMA16 / RFU, RWDD3 / Fold change vs veh, RWDD3 / RFU, BCAT1 / Fold change vs veh, BCAT1 / RFU, EDEM3 / Fold change vs veh, EDEM3 / RFU, TMEM33 / Fold change vs veh, TMEM33 / RFU, WDR75 / Fold change vs veh, WDR75 / RFU, AHCTF1 / Fold change vs veh, AHCTF1 / RFU, TFRC / Fold change vs veh, TFRC / RFU, ZDHHC17 / Fold change vs veh, ZDHHC17 / RFU, NOM1 / Fold change vs veh, NOM1 / RFU, ARL8B / Fold change vs veh, ARL8B / RFU, ZBTB11 / Fold change vs veh, ZBTB11 / RFU, TAMM41 / Fold change vs veh, TAMM41 / RFU, KIAA1704 /// LOC100996395 / Fold change vs veh, KIAA1704 /// LOC100996395 / RFU, ING1 / Fold change vs veh, ING1 / RFU, TRMT61B / Fold change vs veh, TRMT61B / RFU, FUBP3 / Fold change vs veh, FUBP3 / RFU, TP53 / Fold change vs veh, TP53 / RFU, TNKS2 / Fold change vs veh, TNKS2 / RFU, ZFP14 / Fold change vs veh, ZFP14 / RFU, ACTR2 / Fold change vs veh, ACTR2 / RFU, PPP3R1 / Fold change vs veh, PPP3R1 / RFU, PIK3R1 / Fold change vs veh, PIK3R1 / RFU, HNRNPA1 / Fold change vs veh, HNRNPA1 / RFU, RNF170 / Fold change vs veh, RNF170 / RFU, ZNF28 / Fold change vs veh, ZNF28 / RFU, RNGTT / Fold change vs veh, RNGTT / RFU, OGT / Fold change vs veh, OGT / RFU, BRD1 / Fold change vs veh, BRD1 / RFU, MARS / Fold change vs veh, MARS / RFU, ZNF655 / Fold change vs veh, ZNF655 / RFU, FAHD1 / Fold change vs veh, FAHD1 / RFU, BDP1 / Fold change vs veh, BDP1 / RFU, LRRCC1 / Fold change vs veh, LRRCC1 / RFU, ARID1A / Fold change vs veh, ARID1A / RFU, ZNF146 / Fold change vs veh, ZNF146 / RFU, ZNF330 / Fold change vs veh, ZNF330 / RFU, GPN3 / Fold change vs veh, GPN3 / RFU, C9orf123 / Fold change vs veh, C9orf123 / RFU, N4BP2L2 / Fold change vs veh, N4BP2L2 / RFU, ARFIP1 / Fold change vs veh, ARFIP1 / RFU, FAM179B / Fold change vs veh, FAM179B / RFU, BCL10 / Fold change vs veh, BCL10 / RFU, UHRF1BP1L / Fold change vs veh, UHRF1BP1L / RFU, BET1 / Fold change vs veh, BET1 / RFU, CNOT2 / Fold change vs veh, CNOT2 / RFU, ZNF268 / Fold change vs veh, ZNF268 / Fold change vs veh, ZNF507 / RFU, DGCR2 / Fold change vs veh, DGCR2 / RFU, WDSUB1 / Fold change vs veh, WDSUB1 / Fold change vs veh, HSP90B1 /// MIR3652 / RFU, ADSS / Fold change vs veh, ADSS / RFU, GK / Fold change vs veh, GK / RFU, ZNF148 / Fold change vs veh, ZNF148 / RFU, TAF9 / Fold change vs veh, TAF9 / RFU, SLC1A5 / Fold change vs veh, SLC1A5 / RFU, SLMO2 / Fold change vs veh, SLMO2 / RFU, ABCC4 / Fold change vs veh, ABCC4 / RFU, LOC101060439 /// RAP1B / Fold change vs veh, LOC101060439 /// RAP1B / RFU, RFX7 / Fold change vs veh, RFX7 / RFU, GTPBP10 / Fold change vs veh, GTPBP10 / RFU, CNEP1R1 / Fold change vs veh, CNEP1R1 / RFU, BIVM-ERCC5 /// ERCC5 / Fold change vs veh, BIVM-ERCC5 /// ERCC5 / RFU, ILF3 / Fold change vs veh, ILF3 / RFU 11762660_at / Fold change /veh 11762660_at / RFU VCAN (11757783_s_at) / Fold change /veh VCAN (11757783_s_at) / RFU DDX43 (11728927_at) / Fold change /veh DDX43 (11728927_at) / RFU KRT8 (11758188_x_at) / Fold change /veh KRT8 (11758188_x_at) / RFU NKD1 (11759106_at) / Fold change /veh NKD1 (11759106_at) / RFU SRD5A1 (11742802_a_at) / Fold change /veh SRD5A1 (11742802_a_at) / RFU TPSAB1 /// TPSB2 (11721975_s_at) / Fold change /veh TPSAB1 /// TPSB2 (11721975_s_at) / RFU GSTM3 (11746129_a_at) / Fold change /veh GSTM3 (11746129_a_at) / RFU IL23R (11737362_x_at) / Fold change /veh IL23R (11737362_x_at) / RFU TMEM51 (11727254_a_at) / Fold change /veh TMEM51 (11727254_a_at) / RFU PIWIL2 (11732686_x_at) / Fold change /veh PIWIL2 (11732686_x_at) / RFU ORM1 (11744905_x_at) / Fold change /veh ORM1 (11744905_x_at) / RFU CCDC152 (11743942_at) / Fold change /veh CCDC152 (11743942_at) / RFU ECM1 (11717891_a_at) / Fold change /veh ECM1 (11717891_a_at) / RFU IL23R (11748794_a_at) / Fold change /veh IL23R (11748794_a_at) / RFU TNFAIP8L3 (11732012_x_at) / Fold change /veh TNFAIP8L3 (11732012_x_at) / RFU MBOAT4 (11741988_at) / Fold change /veh MBOAT4 (11741988_at) / RFU 11764193_at / Fold change /veh 11764193_at / RFU TMEM53 (11763286_at) / Fold change /veh TMEM53 (11763286_at) / RFU MAGEB2 (11727129_at) / Fold change /veh MAGEB2 (11727129_at) / RFU TMEM200A (11744735_a_at) / Fold change /veh TMEM200A (11744735_a_at) / RFU CCDC152 (11751479_a_at) / Fold change /veh CCDC152 (11751479_a_at) / RFU FAM211A (11726209_a_at) / Fold change /veh FAM211A (11726209_a_at) / RFU RGS16 (11746705_a_at) / Fold change /veh RGS16 (11746705_a_at) / RFU VCAN (11755009_s_at) / Fold change /veh VCAN (11755009_s_at) / RFU RHOB (11743442_s_at) / Fold change /veh RHOB (11743442_s_at) / RFU RGS16 (11720943_a_at) / Fold change /veh RGS16 (11720943_a_at) / RFU RGS16 (11720944_at) / Fold change /veh RGS16 (11720944_at) / RFU, VPS4B / Fold change vs veh, VPS4B / RFU, CREB1 / Fold change vs veh, CREB1 / RFU, DNAJC13 / Fold change vs veh, DNAJC13 / RFU, GNAQ / Fold change vs veh, GNAQ / RFU, CDK5R1 / Fold change vs veh, CDK5R1 / RFU, ZRANB3 / Fold change vs veh, ZRANB3 / RFU, CUL4A / Fold change vs veh, CUL4A / RFU, CCNY / Fold change vs veh, CCNY / RFU, UFL1 / Fold change vs veh, UFL1 / RFU, COG3 / Fold change vs veh, COG3 / RFU, DIAPH2 / Fold change vs veh, DIAPH2 / RFU, SKA2 / Fold change vs veh, SKA2 / RFU, AFF3 / Fold change vs veh, AFF3 / RFU, LMF1 / Fold change vs veh, LMF1 / RFU, IPO11 / Fold change vs veh, IPO11 / RFU, DFFB / Fold change vs veh, DFFB / RFU, FOXP1 / Fold change vs veh, FOXP1 / RFU, CARD8 / Fold change vs veh, CARD8 / RFU, STRN3 / Fold change vs veh, STRN3 / RFU, ADK / Fold change vs veh, ADK / RFU, RASSF2 / Fold change vs veh, RASSF2 / RFU, WIPF1 / Fold change vs veh, WIPF1 / RFU, LARP1B / Fold change vs veh, LARP1B / RFU, RASA1 / Fold change vs veh, RASA1 / RFU, RB1 / Fold change vs veh, RB1 / RFU, PPFIA1 / Fold change vs veh, PPFIA1 / RFU, MAT2A / Fold change vs veh, MAT2A / RFU, CCT5 / Fold change vs veh, CCT5 / RFU, WDR92 / Fold change vs veh, WDR92 / RFU, CUX1 / Fold change vs veh, CUX1 / RFU, TTC7A / Fold change vs veh, TTC7A / RFU, TMEM135 / Fold change vs veh, TMEM135 / RFU, DEPTOR / Fold change vs veh, DEPTOR / RFU, CPM / Fold change vs veh, CPM / RFU, DNAJB6 / Fold change vs veh, DNAJB6 / RFU, CACNA2D3 / Fold change vs veh, CACNA2D3 / RFU, DTX4 / Fold change vs veh, DTX4 / RFU, TFCP2 / Fold change vs veh, TFCP2 / RFU, GMCL1 /// GMCL1P1 / Fold change vs veh, GMCL1 /// GMCL1P1 / RFU, AEBP2 / Fold change vs veh, AEBP2 / RFU, SNHG1 /// SNORD22 /// SNORD25 /// SNORD26 /// SNORD27 /// SNORD28 /// SNORD29 /// SNORD31 / Fold change vs veh, SNHG1 /// SNORD22 /// SNORD25 /// SNORD26 /// SNORD27 /// SNORD28 /// SNORD29 /// SNORD31 / Fold change (Aza/veh), C12orf56 (ProbeSet 11735607_a_at) / Fold change (ACY-1035/veh), C12orf56 (ProbeSet 11735607_a_at) / Fold change (Aza/veh), FGFR1OP (ProbeSet 11751329_s_at) / Fold change (ACY-1035/veh), FGFR1OP (ProbeSet 11751329_s_at) / Fold change (Aza/veh), VPS36 (ProbeSet 11739960_a_at) / Fold change (ACY-1035/veh), VPS36 (ProbeSet 11739960_a_at) / RFU SYPL1 (11715823_x_at) / Fold change /veh SYPL1 (11715823_x_at) / RFU IGFBP7 (11715501_s_at) / Fold change /veh IGFBP7 (11715501_s_at) / RFU REEP3 (11722064_at) / Fold change /veh REEP3 (11722064_at) / RFU IGLL1 (11728026_x_at) / Fold change /veh IGLL1 (11728026_x_at): dose or concentration left out as unconfirmed
Details: ProbeSet 11717876_a_at; LIST D

Nc1ncn([C@@H]2O[C@H](CO)[C@@H](O)[C@H]2O)c(=O)n1 [azacitidine]
Fold change vs veh, PPFIA1: 0.68
